Each structure is given as a SMILES string.

The target of the assay is T1, human adenosine A2b receptor (Homo sapiens, UniProt P29275).
T1 sequence (P29275 1-332): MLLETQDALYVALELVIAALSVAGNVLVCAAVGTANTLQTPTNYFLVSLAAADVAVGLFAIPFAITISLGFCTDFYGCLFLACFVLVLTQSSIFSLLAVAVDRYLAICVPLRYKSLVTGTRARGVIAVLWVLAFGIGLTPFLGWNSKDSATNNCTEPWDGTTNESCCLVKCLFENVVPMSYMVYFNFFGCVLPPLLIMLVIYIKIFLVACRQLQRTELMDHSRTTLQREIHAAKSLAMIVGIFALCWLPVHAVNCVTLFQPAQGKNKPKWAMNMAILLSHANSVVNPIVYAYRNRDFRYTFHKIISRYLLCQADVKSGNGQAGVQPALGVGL
The assay can be described thus: Cellular in vitro reporter gene test for A2b receptor activity (antagonism of NECA). Type of assay: cell-based. Further details: expressed in transfected cells; host or cells: CHO-K1 (Chinese hamster ovary) with CRE-luciferase reporter. Particulars: recombinant CHO-K1 cells, CRE-luciferase reporter, co-incubation with EC50 concentration of NECA, 3 hours. Put shortly: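 CHO-K1 cells expressing recombinant human A2b receptor plus a CRE-driven firefly luciferase reporter. Compounds co-incubated with NECA at its same-day EC50 concentration; luminescence read 3 hours after NECA addition. IC50 values, sometimes means of several determinations rounded to two significant figures.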
Consider `Cc1c(CN2CCNC2=O)sc2c1c(=O)n(C1CC1C)c(=O)n2C[C@H]1CCCO1` (single isomer, unassigned) [Example 287], for which the concentration for half-maximal inhibition (IC50) – broadly, the point on the concentration scale where inhibition reaches its midpoint – is 2.8 nM. With `Cc1c(CN2CCNC2=O)sc2c1c(=O)n([C@H]1C[C@@H]1C)c(=O)n2CC1CCC(F)(F)C1` (stereo partly drawn) [Example 255, 1-[(3,3-Difluorocyclopenty)methy]-5-methyethyl-3-[(S,2S)-2-methylcyclopropyl]-6-[(2-oxoimidazolidin-1-yl)methyl]thieno[2,3-d]pyrimidine-2,4(1H,3H)-dione], the IC50 is 6.7 nM.

In the case of `CCOCCn1c(=O)n(C2CC2)c(=O)c2c(C)c(Cn3nc[nH]c3=O)sc21` [Example 32, 3-Cyclopropyl-1-(2-ethoxyethyl)-5-methyl-6-[(5-oxo-4,5-dihydro-1H-1,2,4-triazol-1-yl)methyl]thieno[2,3-d]pyrimidine-2,4(1H,3H)-dione], the 50% inhibitory concentration (IC50) stood at 430 nM. As for `Cc1c(Cn2nc[nH]c2=O)sc2c1c(=O)n(C1CC1)c(=O)n2CC1CCCC1(F)F` (single isomer, unassigned) [Example 207, 3-Cyclopropyl-1-[(2,2-difluorocyclopentyl)methyl]-5-methyl-6-[(5-oxo-4,5-dihydro-1H-1,2,4-triazol-1-yl)methyl]thieno[2,3-d]pyrimidine-2,4(1H,3H)-dione], the IC50 is 910 nM.

`COCCn1c(=O)n(C2CC3(CCC3)C2)c(=O)c2c(C)c(CN3CCNC3=O)sc21` [Example 179, 1-(2-Methoxyethyl)-5-methyl-6-[(2-oxoimidazolidin-1-yl)methyl]-3-(spiro[3.3]hept-2-yl)thieno[2,3-d]pyrimidine-2,4(1H,3H)-dione]: the IC50 amounted to 10 nM. The result for `COCCn1c(=O)n(C2(C)CCC2)c(=O)c2c(C)c(CN3CCNC3=NC#N)sc21` [Example 140, [1-{[1-(2-Methoxyethyl)-5-methyl-3-(1-methylcyclobutyl)-2,4-dioxo-1,2,3,4-tetrahydrothieno[2,3-d]pyrimidin-6-yl]methyl}imidazolidine-2-ylidene]cyanamide] reads 230 nM.

Consider `COC(=O)N=C1NCCN1Cc1sc2c(c1C)c(=O)n(C1CC(C)(C)C1)c(=O)n2CCC(F)(F)F` [Example 166, Methyl [1-{[3-(3,3-dimethylcyclobutyl)-5-methyl-2,4-dioxo-1-(3,3,3-trifluoropropyl)-1,2,3,4-tetrahydrothieno[2,3-d]pyrimidin-6-yl]methyl}imidazolidin-2-ylidene]carbamate], for which the IC50 came to 4.7 nM. Take `CO[C@H]1C[C@H](n2c(=O)c3c(C)c(CN4CCNC4=O)sc3n(CCC(F)(F)F)c2=O)C1` [Example 144, 3-(trans-3-Methoxycyclobutyl)-5-methyl-6-[(2-oxoimidazolidin-1-yl)methyl]-1-(3,3,3-trifluoropropyl)thieno[2,3-d]pyrimidine-2,4(1H,3H)-dione]: the IC50 amounted to 10 nM. To `Cc1c(Cn2cc[nH]c2=O)sc2c1c(=O)n(C1CC1)c(=O)n2CC1CCCO1` (single isomer, unassigned) [Example 47, 3-Cyclopropyl-5-methyl-6-[(2-oxo-2,3-dihydro-H-imidazol-1-yl)methyl]-1-(tetrahydrofuran-2-ylmethyl)thieno[2,3-d]pyrimidine-2,4(1H,3H)-dione] belongs 140 nM; to `Cc1c(Cn2cc[nH]c2=O)sc2c1c(=O)n(C1CC1)c(=O)n2CC1CC(F)(F)C1` [Example 205, 3-Cyclopropyl-1-[(3,3-difluorocyclobutyl)methyl]-5-methyl-6-[(2-oxo-2,3-dihydro-1H-imidazol-1-yl)methyl]thieno[2,3-d]pyrimidine-2,4(1H,3H)-dione], 7 nM.

Consider `COCCn1c(=O)n(C2CCC2)c(=O)c2c(C)c(CN3CCNC(=O)C3=O)sc21` [Example 118, 3-Cyclobutyl-6-[(2,3-dioxopiperazin-1-yl)methyl]-1-(2-methoxyethyl)-5-methylthieno[2,3-d]pyrimidine-2,4(1H,3H)-dione], for which the IC50 was 14 nM. Consider `Cc1c(CN2CCNC2=O)sc2c1c(=O)n(C1CC1)c(=O)n2CC1CC(F)(F)C1` [Example 204, 3-Cyclopropyl-1-[(3,3-difluorocyclobutyl)methyl]-5-methyl-6-[(2-oxoimidazolidin-1-yl)methyl]thieno[2,3-d]pyrimidine-2,4(1H,3H)-dione], for which the 50% inhibitory concentration (IC50) is 1.8 nM. In the case of `Cc1c(Cn2nc[nH]c2=O)sc2c1c(=O)n(C1(C)CC1)c(=O)n2C[C@@H]1CCCO1` [Example 84, 5-Methyl-3-(1-methylcyclopropyl)-6-[(5-oxo-4,5-dihydro-1H-1,2,4-triazol-1-yl)methyl]-1-[(2S)-tetrahydrofuran-2-ylmethyl]thieno[2,3-d]pyrimidine-2,4(1H,3H)-dione], the concentration for half-maximal inhibition (IC50) is 460 nM. As to `COCCn1c(=O)n(C2CC2OC)c(=O)c2c(C)c(Cn3nc[nH]c3=O)sc21` (racemic) [Example 309, 3-(2-Methoxycyclopropyl)-1-(2-methoxyethyl)-5-methyl-6-[(5-oxo-4,5-dihydro-1H-1,2,4-triazol-1-yl)methyl]thieno[2,3-d]pyrimidine-2,4(1H,3H)-dione], the IC50 is 110 nM. Consider `COCCn1c(=O)n([C@H]2C[C@@H](OC)C2)c(=O)c2c(C)c(CN3CCNC3=O)sc21` [Example 159, 3-(cis-3-Methoxycyclobutyl)-1-(2-methoxyethyl)-5-methyl-6-[(2-oxoimidazolidin-1-yl)methyl]thieno[2,3-d]pyrimidine-2,4(1H,3H)-dione], for which the 50% inhibitory concentration (IC50) amounted to 200 nM. To `Cc1c(CN2CCNC2=O)sc2c1c(=O)n(C1CC1C)c(=O)n2CCC(F)(F)C(F)F` (single isomer, unassigned) [Example 247, 5-Methyl-3-(2-methylcyclopropyl)-6-[(2-oxoimidazolidin-1-yl)methyl]-1-(3,3,4,4-tetrafluorobutyl)thieno[2,3-d]pyrimidine-2,4(1H,3H)-dione] belongs 3.5 nM.

Turning to `CO[C@H]1C[C@H](n2c(=O)c3c(C)c(CN4CCNC(=O)C4=O)sc3n(CCC(F)(F)F)c2=O)C1` [Example 147, 6-[(2,3-Dioxopiperazin-1-yl)methyl]-3-(trans-3-methoxycyclobutyl)-5-methyl-1-(3,3,3-trifluoropropyl)thieno[2,3-d]pyrimidine-2,4(1H,3H)-dione], the IC50 stood at 48 nM. For the compound `COCCn1c(=O)n(C2CCCC2)c(=O)c2c(C)c(Cn3nc[nH]c3=O)sc21` [Example 193, 3-Cyclopentyl-1-(2-methoxyethyl)-5-methyl-6-[(5-oxo-4,5-dihydro-1H-1,2,4-triazol-1-yl)methyl]thieno[2,3-d]pyrimidine-2,4(1H,3H)-dione], the half-maximal inhibitory concentration (IC50) was 230 nM.

Consider `COCCn1c(=O)n(C2CC(F)(F)C2)c(=O)c2c(C)c(CN3CCNC(=O)C3=O)sc21` [Example 128, 3-(3,3-Difluorocyclobutyl)-6-[(2,3-dioxopiperazin-1-yl)methyl]-1-(2-methoxyethyl)-5-methylthieno[2,3-d]pyrimidine-2,4(1H,3H)-dione], for which the 50% inhibitory concentration (IC50) is 36 nM. Regarding `Cc1c(CN2CCNC2=O)sc2c1c(=O)n(C1CC1(C)C)c(=O)n2CCCF` (single isomer, unassigned) [Example 99, 3-(2,2-Dimethylcyclopropyl)-1-(3-fluoropropyl)-5-methyl-6-[(2-oxoimidazolidin-1-yl)methyl]thieno[2,3-d]pyrimidine-2,4(1H,3H)-dione], the IC50 was determined as 28 nM. The result for `COCCn1c(=O)n([C@H]2C[C@H](OC)C2)c(=O)c2c(C)c(Cn3nc[nH]c3=O)sc21` [Example 153, 3-(trans-3-Methoxycyclobutyl)-1-(2-methoxyethyl)-5-methyl-6-[(5-oxo-4,5-dihydro-1H-1,2,4-triazol-1-yl)methyl]thieno[2,3-d]pyrimidine-2,4(1H,3H)-dione] reads 220 nM.

Consider `COCCn1c(=O)n(C2CC2)c(=O)c2c(C)c(CN3CCNC(=O)C3=O)sc21` [Example 27, 3-Cyclopropyl-6-[(2,3-dioxopiperazin-1-yl)methyl]-1-(2-methoxyethyl)-5-methylthieno[2,3-d]pyrimidine-2,4(1H,3H)-dione], for which the 50% inhibitory concentration (IC50) is 40 nM.

Consider `COCCn1c(=O)n(C2CCC2)c(=O)c2c(C)c(CN3CCNC3=O)sc21` [Example 115, 3-Cyclobutyl-1-(2-methoxyethyl)-5-methyl-6-[(2-oxoimidazolidin-1-yl)methyl]thieno[2,3-d]pyrimidine-2,4(1H,3H)-dione], for which the IC50 came out at 4.3 nM. For `CCn1c(=O)n(C2CC2C)c(=O)c2c(C)c(CN3CCNC3=O)sc21` (single isomer, unassigned) [Example 225, 1-Ethyl-5-methyl-3-(2-methylcyclopropyl)-6-[(2-oxoimidazolidin-1-yl)methyl]thieno[2,3-d]pyrimidine-2,4(1H,3H)-dione], the IC50 is 26 nM.

`Cc1c(Cn2cc[nH]c2=O)sc2c1c(=O)n(C1CC1)c(=O)n2CCC(F)(F)F` [Example 14, 3-Cyclopropyl-5-methyl-6-[(2-oxo-2,3-dihydro-1H-imidazol-1-yl)methyl]-1-(3,3,3-trifluoropropyl)thieno[2,3-d]pyrimidine-2,4(1H,3H)-dione]: the half-maximal inhibitory concentration (IC50) came to 3.7 nM.

Take `COC(=O)N=C1NCCN1Cc1sc2c(c1C)c(=O)n([C@H]1C[C@@H](OC)C1)c(=O)n2CCC(F)(F)F` [Example 156, Methyl [1-{[3-(cis-3-methoxycyclobutyl)-5-methyl-2,4-dioxo-1-(3,3,3-trifluoropropyl)-1,2,3,4-tetrahydrothieno[2,3-d]pyrimidin-6-yl]methyl}imidazolidin-2-ylidene]carbamate]: the concentration for half-maximal inhibition (IC50) is 18 nM.
